{"source": "patent US20120064044A1", "about": "“METHODS OF TREATING EDEMA RELATED TO ISCHEMIA-REPERFUSION” (priority 2009, published 2012)", "key": {"OuJ mice": {"system": "OuJ mice", "assay": "Murine lung ischemia-reperfusion injury, edema by wet to dry weight ratio (W/D), OuJ mice", "format": "in vivo, mouse", "parameters": "dose or concentration left out as unconfirmed", "conditions": "intravenously over 30 minutes (200 μL of saline) starting 60 minutes before left hilar clamping, FIG. 5A", "experimental": "(§1) Mice were anesthetized with ketamine (0.1 mg/gm body weight) and xylazine (0.01 mg/gm) interperitoneally, followed by one-third of the initial dose hourly. Tracheotomy allowed mechanical ventilation (with a tidal volume of 0.4 mL, respiratory rate 120/min, I/E 0.4, PEEP 3 cm H2O, FiO2, 1.0) using a Columbus Instruments Ventilator CIV-101 (Columbus Instruments, Columbus, Ohio, United States of America). The right jugular vein was cannulated for infusion of albumin 2.5% in 0.9% saline, 450 μL/hour by syringe pump (Medfusion 2010i; Medex, Carlsbad, California, United States of America) to maintain hydration. Rectal temperature was monitored and maintained with a heating pad. The left pulmonary hilum was occluded for 1 hour with a microvascular clamp through a left thoracotomy. Reperfusion began with removal of the clamp. Animals were sacrificed at intervals ranging from 15 minutes to 3 hours by cardiectomy, and both lungs were excised. The apical portion of each lung was excised and immediately weighed, then desiccated in a 60° C. oven for 48 hours and re-weighed to determine wet to dry weight ratio (W/D). Remaining lung tissue was flash frozen in liquid nitrogen and stored at −80° C. Lungs excised immediately after sacrifice served as controls."}, "C57BL/6J mice": {"system": "C57BL/6J mice", "assay": "Murine lung ischemia-reperfusion injury, edema by wet to dry weight ratio (W/D), C57BL/6J mice", "format": "in vivo, mouse", "conditions": "BL6 mice; 10 μg over 30 minutes starting 60 min prior to left hilar clamping for 1 hour; FIGS. 7A and 7B", "experimental": "as §1\nA further study was performed to compare the effects of pre-treatment with a TLR4 inhibitor. […]"}, "NF-κB activation [1]": {"system": "NF-κB activation", "assay": "NF-κB reporter assay (fluc/β-gal) in HMVECs stimulated with LPS or TNF", "format": "cell-based, human", "conditions": "FIG. 5B", "experimental": "FIG. 5B is a bar graph showing the in vitro inhibition of NF-κB activation (based on firefly luciferase (fluc)/β-galactosidase (β-gal) activity) effected by 0.1, 1, 10, and 100 μg concentrations (i.e., Inhib 0.1, Inhib 1, Inhib 10, Inhib 100, respectively) of CRX-526. Fluc/β-gal was measured following stimulation of CRX-526-treated human pulmonary microvascular endothelial cells (HMVECs) with phosphate buffered saline (PBS) only (open bars), 10 ng/mL lipopolysaccharide (LPS) (spotted bars), 5 ng/mL LPS (striped bars), or 0.25 ng/mL tumor necrosis factor (TNF, darkly shaded bars). HMVECs that had not been treated with CRX-526 were used as a control. n=4/group, *p<0.05 compared to other values at same time point by ANOVA.\n(§2) Recombinant, first generation E1, E3-deleted adenovirus serotype 5 vectors were prepared (see Sanlioglu et al., J. Biol. Chem., 276, 30188-30198 (2001)) and HMVECs and AMs were transfected as previously described for epithelial cells. See Wu et al., Respir. Res., 6, 26 (2005)."}, "[2]": {"system": "NF-κB activation mediated through stimulation by Toll-like receptor 2 (TLR2) ligands", "assay": "NF-κB reporter assay (fluc/β-gal) in HMVECs stimulated with TLR2 ligands", "format": "cell-based, human", "conditions": "transfected HMVECs pretreated 1 hour; Pam(3)Cys 25 μg/mL or LTA 1 μg/mL for 8 hours; FIG. 8", "description": "FIG. 8 is a bar graph showing the effects of CRX-526 on NF-κB activation mediated through stimulation by Toll-like receptor 2 (TLR2) ligands. Human pulmonary microvascular endothelial cells (HMVECs) were transfected with recombinant first-generation E1, E3-deleted Ad.NF-κB-luciferase and consituitive β-galactosidase vectors so that when NF-κB is activated, the ratio of firefly luciferase (fluc)/β-galactosidase (β-gal) increases. Forty eight hours after transfection, the HMVECs were pretreated for 1 hour with various concentrations of CRX-526 (as shown on the x-axis) and exposed to TLR2 ligands Pam(3)Cys (25 μg/mL, darkly shaded bars) or lipoteichoic acid (LTA; 1 μg/mL, open bars) for 8 hours. Luciferase activity is normalized to β-galactosidase to control for infection efficiency.\nas §2"}, "NF-κB activation [3]": {"system": "NF-κB activation", "assay": "NF-κB reporter assay (fluc/β-gal) in alveolar macrophages", "format": "cell-based, mouse", "conditions": "1 μg/mL LPS; native OuJ AMs and AMs from chimeric strain P-M+; FIG. 4A", "experimental": "FIG. 4A is a bar graph of NF-κB activation (as measured by firefly luciferase (fluc)/β-galactosidase (β-gal) activity) in alveolar macrophages (AMs) from chimeric mice twelve weeks following bone marrow transplant. The AMs were retrieved by bronchoalveolar lavage (BAL) and infected with Ad.NFκBLuc and Ad.CMV-LacZ, then incubated with either phosphate buffered saline (PBS; open bars) or 1 μg/mL lipopolysaccharide (LPS, darkly shaded bars). The observed firefly luciferase/β-galactosidase activity indicated complete replacement of recipient marrow from either chimeric HeJ strain (P+M−) or chimeric OuJ strain (P−M+). P=parenchymal cells, M=marrow-derived cells, +=intact TLR4 (OuJ), −=non-functional TLR4 (HeJ). AMs retrieved from non-irradiated HeJ and OuJ mice served as controls. n=4 experiments/group, p<0.0001.\nAMs from HeJ and OuJ mice were harvested by BAL 120 days after BMT. The trachea was cannulated with a tailored 18 gauge catheter (Becton Dickinson, Sandy, Utah, United States of America). BAL was performed by slow tracheal delivery of 4 aliquots (35 μL×body weight in grams) of pre-warmed, sterile, endotoxin-, calcium-, and magnesium-free PBS with 0.2 mM EGTA. Lavage fluid was withdrawn by gentle suction, pooled for each mouse, and centrifuged at 250 g for 5 minutes. […]"}}, "data": [{"molecule": "CCCCCCCCCCC[C@H](CC(=O)N[C@H]1[C@H](OC[C@H](NC(=O)C[C@@H](CCCCCCCCCCC)OC(=O)CCCCC)C(=O)O)O[C@H](CO)[C@@H](OP(=O)(O)O)[C@@H]1OC(=O)C[C@@H](CCCCCCCCCCC)OC(=O)CCCCC)OC(=O)CCCCC", "note": "[CRX-526]", "values": [{"measurement": "edema (W/D) following 1 hour of ischemia-reperfusion", "setting": "OuJ mice", "value": "prevented edema"}, {"measurement": "edema (W/D) for up to 180 min of reperfusion", "setting": "C57BL/6J mice", "value": "little if any edema"}, {"measurement": "TNF stimulation of NF-κB activation", "setting": "NF-κB activation [1]; HMVECs, 0.25 ng/mL TNF", "value": "no impact"}, {"measurement": "NF-κB activation in HMVECs exposed to LPS", "setting": "NF-κB activation [1]; LPS 10 or 5 ng/mL, CRX-526 0.1, 1, 10, 100 μg", "value": "prevented NF-κB activation"}, {"measurement": "NF-κB activation stimulated by TLR2 ligands", "setting": "[2]", "value": "reduced NF-κB activation"}]}, {"molecule": "lipopolysaccharide [LPS]", "values": [{"measurement": "increase in luciferase activity", "setting": "NF-κB activation [3]", "value": "approximately 60 fold"}]}]}
